Here are results for 60 molecules from the Kinase Knowledgebase extract (Sharma et al. 2016).

Structures are written as SMILES. Where “and” joins values, the source holds several entries; their conditions need not be identical. Equal entries are not always repeated. Where only a bound is given, the exact number is not on record here.

Chain of PIK3CD (Human) (O00329 whole entry, looked up): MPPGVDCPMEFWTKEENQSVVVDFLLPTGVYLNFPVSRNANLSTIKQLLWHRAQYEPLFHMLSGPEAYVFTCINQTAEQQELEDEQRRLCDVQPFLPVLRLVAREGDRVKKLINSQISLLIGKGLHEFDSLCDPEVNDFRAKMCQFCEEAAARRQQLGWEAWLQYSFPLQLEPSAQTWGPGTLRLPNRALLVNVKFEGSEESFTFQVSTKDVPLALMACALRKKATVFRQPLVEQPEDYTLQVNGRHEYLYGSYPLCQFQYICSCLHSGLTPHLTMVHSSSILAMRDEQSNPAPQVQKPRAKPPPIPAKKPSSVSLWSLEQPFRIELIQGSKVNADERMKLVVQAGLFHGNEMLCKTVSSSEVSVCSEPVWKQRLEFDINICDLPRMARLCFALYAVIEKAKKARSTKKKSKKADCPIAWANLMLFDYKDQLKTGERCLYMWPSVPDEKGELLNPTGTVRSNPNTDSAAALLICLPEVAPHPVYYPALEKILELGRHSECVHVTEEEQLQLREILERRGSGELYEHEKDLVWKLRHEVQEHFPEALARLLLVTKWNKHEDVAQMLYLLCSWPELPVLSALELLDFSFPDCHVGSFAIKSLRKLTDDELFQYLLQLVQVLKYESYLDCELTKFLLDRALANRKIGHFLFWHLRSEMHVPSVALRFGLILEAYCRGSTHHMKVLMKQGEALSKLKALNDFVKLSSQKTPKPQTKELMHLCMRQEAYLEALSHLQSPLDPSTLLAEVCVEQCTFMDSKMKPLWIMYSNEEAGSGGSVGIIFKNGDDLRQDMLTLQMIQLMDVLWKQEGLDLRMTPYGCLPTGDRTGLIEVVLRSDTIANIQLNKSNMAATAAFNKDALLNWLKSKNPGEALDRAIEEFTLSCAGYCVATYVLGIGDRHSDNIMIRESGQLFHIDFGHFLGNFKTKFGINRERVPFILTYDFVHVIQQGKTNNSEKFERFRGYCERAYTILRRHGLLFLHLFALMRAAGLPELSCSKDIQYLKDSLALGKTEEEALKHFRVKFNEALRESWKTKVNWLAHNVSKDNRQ

One experiment addresses PIK3CD (Human) (UniProt O00329). In words: Inhibition of PIK3CD Kinase Activity in Pfeiffer Cells.
For orientation: IC50 means the concentration needed to halve the response being measured. `Cc1cccc2nc(C(C)Nc3ncnc4[nH]cnc34)c(-c3cc(F)cc(F)c3)c(=O)n12` (configuration not stated): the IC50 is 50 to 100 nM.
The molecule `Cc1csc2nc(C(C)Nc3ncnc4[nH]cnc34)c(-c3cc(F)cc(F)c3)c(=O)n12` (configuration not stated) returned an IC50 of 100 to 500 nM.
The same measure, in the same setting: with `Cc1cccc2nc(C(C)Nc3nc(N)nc4[nH]cnc34)c(-c3ccc(C#N)cc3)c(=O)n12` (configuration not stated) the figure was 500 to 1000 nM; with `Cc1ccc(-c2c(C(C)Nc3ncnc4[nH]cnc34)nc3cccc(C)n3c2=O)cc1` (configuration not stated), 50 to 100 nM.
Turning to `Cc1csc2nc(C(C)Nc3nc(N)nc4[nH]cnc34)c(-c3cc(F)cc(Cl)c3)c(=O)n12` (configuration not stated), the IC50 was below 50 nM.
On the same count and under the same terms, for `Cc1csc2nc(C(C)Nc3ncnc4[nH]cnc34)c(-c3ccccc3F)c(=O)n12` (configuration not stated) the value was 50 to 100 nM; for `Cc1csc2nc(C(C)Nc3ncnc4[nH]cnc34)c(-c3cc(F)cc(Cl)c3)c(=O)n12` (configuration not stated), 50 to 100 nM; for `Cc1csc2nc(C(C)Nc3nc(F)nc4[nH]cnc34)c(-c3cc(F)cc(F)c3)c(=O)n12` (configuration not stated), 50 to 100 nM.
Molecule `Cc1cccc2nc(C(C)Nc3ncnc4[nH]cnc34)c(-c3ccccc3)c(=O)n12` (configuration not stated) registered an IC50 of 50 to 100 nM.
On the same count and under the same terms, with `CCC(Nc1ncnc2[nH]cnc12)c1nc2cccc(C)n2c(=O)c1-c1cn[nH]c1` (configuration not stated) the figure was 500 to 1000 nM; with `Cc1cccc2nc(C(C)Nc3ncnc4[nH]cnc34)c(-c3ccc(F)c(F)c3)c(=O)n12` (configuration not stated), 500 to 1000 nM.
`Cc1csc2nc(C(C)Nc3ncnc4[nH]cnc34)c(-c3cc(F)ccc3F)c(=O)n12` (configuration not stated): the IC50 was 50 to 100 nM.
On the same count and under the same terms, for `COc1cccc(-c2c(C(C)Nc3ncnc4[nH]cnc34)nc3cccc(C)n3c2=O)c1` (configuration not stated) the value was 50 to 100 nM; for `Cc1cccc(-c2c(C(C)Nc3nc(N)nc4[nH]cnc34)nc3cccc(C)n3c2=O)c1` (configuration not stated), 50 to 100 nM; for `Cc1cccc2nc(C(C)Nc3nc(N)nc4[nH]cnc34)c(-c3ccccc3F)c(=O)n12` (configuration not stated), 50 to 100 nM.
Molecule `Cc1cccc2nc(C(C)Nc3ncnc4[nH]cnc34)c(-c3ccccc3Cl)c(=O)n12` (configuration not stated) came in with an IC50 of 50 to 100 nM.
On the same count and under the same terms, for `Cc1csc2nc(C(C)Nc3ncnc4[nH]cnc34)c(-c3ccccc3Cl)c(=O)n12` (configuration not stated) the value was 100 to 500 nM and < 50 nM; for `Cc1csc2nc(C(C)Nc3ncnc4[nH]cnc34)c(-c3cscn3)c(=O)n12` (configuration not stated), 50 to 100 nM.
`Cc1cccc2nc(C(C)Nc3ncnc4[nH]cnc34)c(-c3cc(F)ccc3F)c(=O)n12` (configuration not stated): the half-maximal inhibitory concentration (IC50) was 50 to 100 nM.
Same read-out and setting: for `CCc1cccc2nc(C(C)Nc3ncnc4[nH]cnc34)c(-c3ccc(F)cc3)c(=O)n12` (configuration not stated) the value was 100 to 500 nM; for `Cc1cccc2nc(C(C)Nc3nc(N)nc4[nH]cnc34)c(-c3cccc(C#N)c3)c(=O)n12` (configuration not stated), 100 to 500 nM; for `Cc1cccc2nc(C(C)Nc3ncnc4[nH]cnc34)c(-c3cccc(Cl)c3)c(=O)n12` (configuration not stated), 50 to 100 nM.
The same measure, in the same setting: for `Cc1csc2nc(C(C)Nc3nc(N)nc4[nH]cnc34)c(-c3cccc(Cl)c3)c(=O)n12` (configuration not stated) the value was below 50 nM.
With `CCC(Nc1ncnc2[nH]cnc12)c1nc2cccc(C)n2c(=O)c1-c1cccc(F)c1` (configuration not stated), the IC50 lay within 100 to 500 nM.
On the same count and under the same terms, for `Cc1csc2nc(C(C)Nc3ncnc4[nH]cnc34)c(-c3cccc(Cl)c3)c(=O)n12` (configuration not stated) the value was 50 to 100 nM; for `Cc1csc2nc(C(C)Nc3ncnc4[nH]cnc34)c(-c3nccs3)c(=O)n12` (configuration not stated), 50 to 100 nM; for `Cc1cccc2nc(C(C)Nc3ncnc4[nH]cnc34)c(-c3cccc(F)c3F)c(=O)n12` (configuration not stated), 100 to 500 nM.
Take `Cc1csc2nc(C(C)Nc3ncnc4[nH]cnc34)c(-c3ccc(F)cc3)c(=O)n12` (configuration not stated): the IC50 is 100 to 500 nM.
The same measure, in the same setting: for `Cc1cccc2nc(C(C)Nc3ncnc4[nH]cnc34)c(-c3ccccc3F)c(=O)n12` (configuration not stated) the value was 100 to 500 nM; for `Cc1cccc2nc(C(C)Nc3nc(N)nc4[nH]cnc34)c(-c3cccc(Cl)c3)c(=O)n12` (configuration not stated), 50 to 100 nM; for `Cc1csc2nc(C(C)Nc3nc(N)nc4[nH]cnc34)c(-c3cc(F)cc(F)c3)c(=O)n12` (configuration not stated), below 50 nM.
In the case of `CCc1cccc2nc(C(C)Nc3nc(N)nc4[nH]cnc34)c(-c3cc(F)cc(F)c3)c(=O)n12` (configuration not stated), the IC50 is below 50 nM.
On the same count and under the same terms, for `Cc1csc2nc(C(C)Nc3nc(N)nc4[nH]cnc34)c(-c3ccccc3Cl)c(=O)n12` (configuration not stated) the value was < 50 nM and 100 to 500 nM.

The next experiment has the same target. Briefly: Inhibition of PIK3CD Kinase Activity (Scintillation Proximity Assay). A general note: SPA uses beads or plates that emit light when radiolabelled molecules are held near them.
In turn, `CC(Nc1nc(N)nc2[nH]cnc12)c1nc2sccn2c(=O)c1-c1ccccc1` (configuration not stated) returned an IC50 of 100 to 500 nM.
`Cc1csc2nc(C(C)Nc3ncnc4[nH]cnc34)c(-c3cc(F)cc(F)c3)c(=O)n12` (configuration not stated) showed an IC50 below 50 nM.
On the same count and under the same terms, with `CCc1cccc2nc(C(C)Nc3ncnc4[nH]cnc34)c(-c3cc(F)cc(F)c3)c(=O)n12` (configuration not stated) the figure was 100 to 500 nM; with `Cc1ccccc1-c1c(C(C)Nc2ncnc3[nH]cnc23)nc2cccc(C)n2c1=O` (configuration not stated), 100 to 500 nM; with `Cc1csc2nc(C(C)Nc3nc(N)nc4[nH]cnc34)c(-c3ccccc3F)c(=O)n12` (configuration not stated), below 50 nM.
Turning to `Cc1cccc2nc(C(C)Nc3ncnc4[nH]cnc34)c(-c3cccc(C#N)c3)c(=O)n12` (configuration not stated), the IC50 fell in the range of 100 to 500 nM.
In the case of `CCC(Nc1ncnc2[nH]cnc12)c1nc2cccc(C)n2c(=O)c1-c1cc(F)cc(F)c1` (configuration not stated), the IC50 lay within 50 to 100 nM.
Still for that read-out and setting: for `Cc1ccc(-c2c(C(C)Nc3ncnc4[nH]cnc34)nc3scc(C)n3c2=O)cc1` (configuration not stated) the value was 100 to 500 nM; for `Cc1csc2nc(C(C)Nc3ncnc4[nH]cnc34)c(-c3ccccc3)c(=O)n12` (configuration not stated), below 50 nM.
As to `CCC(Nc1ncnc2[nH]cnc12)c1nc2cccc(C)n2c(=O)c1-c1ccccc1` (configuration not stated), the IC50 is below 50 nM.
`Cc1cccc2nc(C(C)Nc3nc(N)nc4[nH]cnc34)c(-c3cccc(F)c3)c(=O)n12` (configuration not stated) registered an IC50 below 50 nM.
In turn, `Cc1csc2nc(C(C)Nc3ncnc4[nH]cnc34)c(-c3cncc(F)c3)c(=O)n12` (configuration not stated) showed an IC50 of 100 to 500 nM.
`Cc1csc2nc(C(C)Nc3ncnc4[nH]cnc34)c(-c3ccccc3Cl)c(=O)n12` (configuration not stated): the IC50 is 100 to 500 nM and < 50 nM.
Still for that read-out and setting: for `Cc1csc2nc(C(C)Nc3ncnc4[nH]ccc34)c(-c3cc(F)cc(F)c3)c(=O)n12` (configuration not stated) the value was 100 to 500 nM; for `Cc1cccc2nc(C(C)Nc3ncnc4[nH]cnc34)c(-c3cccc(F)c3)c(=O)n12` (configuration not stated), below 50 nM.
On the same count and under the same terms, with `Cc1csc2nc(C(C)Nc3nc(N)nc4[nH]cnc34)c(-c3cccc(F)c3F)c(=O)n12` (configuration not stated) the figure was below 50 nM.
Consider `Cc1csc2nc(C(C)Nc3nc(N)nc4[nH]cnc34)c(-c3cncc(F)c3)c(=O)n12` (configuration not stated), for which the IC50 lay within 50 to 100 nM.
Same read-out and setting: with `Cc1cccc(-c2c(C(C)Nc3ncnc4[nH]cnc34)nc3cccc(C)n3c2=O)c1` (configuration not stated) the figure was 100 to 500 nM.
The molecule `Cc1csc2nc(C(C)Nc3ncnc4[nH]cnc34)c(-c3cccc(F)c3F)c(=O)n12` (configuration not stated) yielded an IC50 of 50 to 100 nM.
The same measure, in the same setting: for `CC(Nc1nc(N)nc2[nH]cnc12)c1nc2ccccn2c(=O)c1-c1cc(F)cc(F)c1` (configuration not stated) the value was 100 to 500 nM; for `Cc1cccc2nc(C(C)Nc3nc(N)nc4[nH]cnc34)c(-c3ccccc3Cl)c(=O)n12` (configuration not stated), below 50 nM.
Take `CC(Nc1ncnc2[nH]cnc12)c1nc2scc(C(F)(F)F)n2c(=O)c1-c1cccc(F)c1` (configuration not stated): the IC50 was 50 to 100 nM.
In turn, `Cc1csc2nc(C(C)Nc3nc(N)nc4[nH]cnc34)c(-c3cc(F)cc(F)c3)c(=O)n12` (configuration not stated) gave an IC50 below 50 nM.
Molecule `Cc1cccc2nc(C(C)Nc3nc(N)nc4[nH]cnc34)c(-c3ccccc3)c(=O)n12` (configuration not stated) had an IC50 below 50 nM.
Still for that read-out and setting: with `Cc1csc2nc(C(C)Nc3nc(N)nc4[nH]cnc34)c(-c3ccccc3Cl)c(=O)n12` (configuration not stated) the figure was 100 to 500 nM and < 50 nM.

The next experiment shares this target. Briefly: Inhibition of PIK3CD Kinase Activity (AlphaScreen Assay). (Alpha assays give light when donor and acceptor beads are brought close together.)
Molecule `Cc1csc2nc(C(C)Nc3ncnc4[nH]cnc34)c(-c3cc(F)cc(F)c3)c(=O)n12` (configuration not stated) returned an IC50 below 50 nM.
Regarding `Cc1csc2nc(C(C)Nc3ncnc4[nH]cnc34)c(-c3ccccn3)c(=O)n12` (configuration not stated), the IC50 lay within 50 to 100 nM.
The same measure, in the same setting: for `Cc1csc2nc(C(C)Nc3nc(N)nc4[nH]cnc34)c(-c3cccc(F)c3)c(=O)n12` (configuration not stated) the value was below 50 nM; for `Cc1csc2nc(C(C)Nc3nc(N)nc4[nH]cnc34)c(-c3ccccc3)c(=O)n12` (configuration not stated), below 50 nM; for `Cc1cccc2nc(C(C)n3cnc4c(N)ncnc43)c(-c3ccccc3)c(=O)n12` (configuration not stated), 100 to 500 nM.
Same read-out and setting: with `CCC(Nc1ncnc2[nH]cnc12)c1nc2cccc(C)n2c(=O)c1-c1cncc(F)c1` (configuration not stated) the figure was 100 to 500 nM; with `CCC(Nc1ncnc2[nH]cnc12)c1nc2cccc(C)n2c(=O)c1-c1cccnc1F` (configuration not stated), 100 to 500 nM.
Still for that read-out and setting: for `Cc1csc2nc(C(C)Nc3nc(N)nc4[nH]cnc34)c(-c3cc(F)cc(F)c3)c(=O)n12` (configuration not stated) the value was below 50 nM.

For another experiment the target is unchanged. Briefly: Inhibition of PIK3CD Kinase Activity.
In turn, `Cc1csc2nc(C(C)Nc3ncnc4[nH]cnc34)c(-c3cc(F)cc(F)c3)c(=O)n12` (configuration not stated) gave an IC50 below 50 nM.
